In BigSolDB 2.1:

O=c1cnc(Br)c[nH]1
solubility (mole fraction)
Conditions	in DMF	in acetone	in acetonitrile	in ethanol	in ethylene glycol	in isopropanol	in methanol	in n-propanol	in propylene glycol	in water
278.15 K	0.00576	0.00534	0.00413	0.000696	0.00014	0.00258	0.000272	0.00382	0.000194	8.21e-06
283.15 K	0.00768	0.00685	0.00519	0.000989	0.000203	0.00333	0.000366	0.00472	0.00025	1.29e-05
288.15 K	0.00988	0.00877	0.00625	0.00128	0.000284	0.00439	0.000485	0.00579	0.000338	1.81e-05
293.15 K	0.0124	0.0106	0.00766	0.00166	0.000386	0.00534	0.000633	0.0072	0.000448	2.46e-05
298.15 K	0.0151	0.013	0.00941	0.0021	0.000504	0.00678	0.000782	0.00879	0.000589	3.2e-05
303.15 K	0.0181	0.0161	0.0113	0.00251	0.00065	0.00863	0.000951	0.0106	0.000766	4.13e-05
308.15 K	0.0219	0.0194	0.0136	0.00303	0.000845	0.0109	0.00116	0.0129	0.000961	5.32e-05
313.15 K	0.026	0.023	0.0161	0.0036	0.00111	0.0135	0.0014	0.0152	0.00121	6.69e-05
318.15 K	0.0309	0.0275	0.019	0.00434	0.00139	0.0168	0.00169	0.018	0.00152	8.43e-05
323.15 K	0.0365	0.0328	0.0222	0.00525	0.00174	0.0205	0.00203	0.0213	0.00187	0.000106
